Results on two molecules are retold here after patent US9629887B1, “Control of acid reflux with botanicals” (Biotics Research Corporation, priority 2014, dated 2017).

In this assay the test system is patients with acid reflux / GI tract symptoms. The experiment in a line: Case histories of patients treated with HCl-Ease capsules. It is filed as in vivo, human. Conditions: previous treatment prescribed elsewhere, patient history. The source says: The invention is further illustrated by the following case histories, in which the inventive capsules as described above as the specific embodiment are referred to as HCl-Ease.

Counter-ions that a name gives are not always drawn.

Take `C[N+](C)(C)CC(=O)O` [Betaine HCL]: the “outcome of other treatment as stated by patient” value was “greatly increased their symptoms”.

`COc1ccc2[nH]c([S+]([O-])Cc3ncc(C)c(OC)c3C)nc2c1` (centres unmarked) [Prilosec]: the “outcome of other treatment as stated by patient” value is recorded as “didn't help much”.
